Values after ≈ are worked out from the molar mass of the structure shown. Where two headings read alike, the source gives them in different places. Peptide text beside a SMILES is read from it.
What was measured:
[1] = test system: Staphylococcus hemolyticus 730; assay: microbe, parasite or virus in culture; type: cell-based; settings: for MIC after 1-Hr AB incubation / MIC after 1-Hr NE digestion / MIC after 4-Hr AB incubation / MIC after 4-Hr NE digestion: pH 8; for MIC: then MIC vs Staphylococcus hemolyticus 730
Description: One motivation in designing linear or cyclic AMPs is to prevent proteolytic degradation that can occur with helical peptides. […] Linezolid, a conventional antibiotic was included for comparison.
(§1) To examine antibacterial activity, we used minor modifications of a standard growth inhibition assay endorsed by the Clinical and Laboratory Standards Institute (CLSI), as previously described.[13] Bacteria were incubated with each of the indicated peptides in MHB2. The bacterial cells were kept in an incubator for 18 h at 37 °C, which is linked to a robotic system that feeds a plate reader every hour with one of 8 × 96-well plates. The 96-well plates are standard flat-bottom microliter plates purchased from Thermo Fisher (Waltham, MA). This setup allows the collection of growth kinetic data at A 570 (absorbance at 570 nm) to examine growth inhibition in real-time (BioTek Instruments, Winooski, VT). […] The assays are typically repeated a second time. If the MIC differs from the first assay, a third experimental trial is performed to confirm the MIC.
The neutrophil elastase was dissolved in 200 mmol/L Tris buffer, pH 8.8, and used at a molar ratio of 1:50 with the peptide in 200 mM ammonium bicarbonate pH 8.0 for 1 or 4 h. The control experiment incubated the peptides alone in 200 mmol/L ammonium bicarbonate for 1 or 4 h. Upon completion of the incubations, the peptides were serially diluted to test MIC. 50% (v/v) MHB2 was added to the plates. MIC was determined as described above.

[2] = test system: human red blood cells (RBCs); settings: cited from earlier work
Source text: Table 2 Antibacterial Activity and Toxicity of CE-03, LE-53, CE-05 and LE-55 Peptides ^a | column: % toxicity / RBC || The secondary structure of AMPs as they encounter membranes may correlate with their toxicity; it has long been thought that helical peptides are more toxic to eukaryotic cells than nonhelical peptides. Our group has found a positive correlation between helicity and toxicity for WLBU2,[18] the E2-peptides,[28] and SPLUNC1-derived antimicrobial peptides.[34] We have also seen the converse, that nonhelical peptides are nontoxic,[18],[26] supporting the positive correlation between helicity and toxicity. Several literature studies have also found a correlation between α-helicity and toxicity to e ...

[3] = test system: Pseudomonas aerginosa (PA231, PA235, PA239, PA249); assay: MIC growth inhibition assay, Pseudomonas aeruginosa clinical isolates; type: cell-based; settings: average of four strains, MHB2, 18 h, 37 °C, A570 growth curves
Description: (§2) Bacterial clinical isolates used for initial screening were anonymously provided by the clinical microbiology laboratory of the University of Pittsburgh Medical Center (UPMC). Bacteria were stored at −80 °C and typically retrieved by obtaining single colonies on agar plates prior to subsequent liquid broth culture. Suspensions of test bacteria were prepared from the log phase of growth by diluting overnight cultures at 1:100 with fresh cation-adjusted Mueller–Hinton Broth (MHB2) and incubating for an additional 3–4 h. Bacteria were spun at 3000 g for 10 min. The pellet was resuspended in Test Condition Media to determine bacterial turbidity using a Den-1B densitometer (Grant Instruments, Beaver Falls, PA) at 0.5 McFarland units corresponding to 10^8 CFU/mL.
as §1

[4] = test system: Acinetobacter baumannii (AB78, AB83, AB273, AB275); assay: microbe, parasite or virus in culture; type: cell-based
Description: as §2, §1

[5] = test system: Escherichia coli (EC541, EC543, EC546, EC549); assay: microbe, parasite or virus in culture; type: cell-based
Description: as §2, §1

[6] = test system: Klebsiella pneumoniae (KP106, KP506, KP542, KP550); assay: microbe, parasite or virus in culture; type: cell-based
Description: as §2, §1

[7] = test system: Staphylococcus aureus (SA703, SA722, SA729); assay: microbe, parasite or virus in culture; type: cell-based
Description: as §2, §1

[8] = test system: Enterobacter (EA62, EC544, EC547, EA1042); assay: MIC growth inhibition assay, Enterobacter clinical isolates; type: cell-based; settings: average of four strains, MHB2, 18 h, 37 °C, A570 growth curves, read-out: MIC G(−) Entbac
Description: as §2, §1

[9] = test system: G(−) bacteria (five species); assay: MIC growth inhibition assay, average over G(−) species; type: cell-based; settings: average of the average MICs of five G(−) species, ± spread
Description: as §2, §1

[10] = test system: Enterococci (EF500, EF678, EF679, EF787); assay: organism not typed; type: cell-based; settings: read-out: MIC G(+) Entcoc
Description: as §2, §1

[11] = test system: G(+) bacteria (two species); assay: MIC growth inhibition assay, average over G(+) species; type: cell-based; settings: average of the average MICs of two G(+) species, ± spread
Description: as §2, §1

[12] = average of four strains, MHB2, 18 h, 37 °C, A570 growth curves
[13] = EC541, EC543, EC546, EC549, 18 h
[14] = KP106, KP506, KP542, KP550, 18 h

With CC(C)[C@H](NC(=O)[C@@H](NC(=O)[C@@H](NC(=O)[C@@H](NC(=O)[C@H](Cc1c[nH]c2ccccc12)NC(=O)[C@H](Cc1c[nH]c2ccccc12)NC(=O)[C@H](Cc1c[nH]c2ccccc12)NC(=O)[C@H](Cc1c[nH]c2ccccc12)NC(=O)[C@H](CCCNC(=N)N)NC(=O)[C@H](CCCNC(=N)N)NC(=O)[C@H](CCCNC(=N)N)NC(=O)[C@H](CCCNC(=N)N)NC(=O)[C@H](CCCNC(=N)N)NC(=O)[C@H](CCCNC(=N)N)NC(=O)[C@H](CCCNC(=N)N)NC(=O)[C@@H](N)CCCNC(=N)N)C(C)C)C(C)C)C(C)C)C(=O)O [LE-55] (H-RRRRRRRRWWWWVVVV-OH) the “MIC after 1-Hr AB incubation” value [1] was 16.0 ± 0 µM (≈ 38.5 µg/mL), the “MIC after 1-Hr NE digestion” value [1] was 3.0 ± 1.4 µM (≈ 7.23 µg/mL) and the “MIC after 4-Hr AB incubation” value [1] was 6.0 ± 2.8 µM (≈ 14.5 µg/mL). For the same compound, the “MIC after 4-Hr NE digestion” value [1] was 3.0 ± 1.4 µM (≈ 7.23 µg/mL) and the “toxicity (in words)” value [2] was “nontoxic”.

For CC(C)[C@H](NC(=O)[C@@H](NC(=O)[C@H](Cc1c[nH]c2ccccc12)NC(=O)[C@H](Cc1c[nH]c2ccccc12)NC(=O)[C@H](Cc1c[nH]c2ccccc12)NC(=O)[C@H](Cc1c[nH]c2ccccc12)NC(=O)[C@H](CCCNC(=N)N)NC(=O)[C@H](CCCNC(=N)N)NC(=O)[C@H](CCCNC(=N)N)NC(=O)[C@H](CCCNC(=N)N)NC(=O)[C@H](CCCNC(=N)N)NC(=O)[C@@H](N)CCCNC(=N)N)C(C)C)C(=O)O [LE-53] (H-RRRRRRWWWWVV-OH), the “MIC after 1-Hr AB incubation” value [1] was 2.0 ± 0 µM (≈ 3.8 µg/mL), the “MIC after 1-Hr NE digestion” value [1] was 2.0 ± 0 µM (≈ 3.8 µg/mL) and the “MIC after 4-Hr AB incubation” value [1] was 3.0 ± 1.4 µM (≈ 5.69 µg/mL). The “MIC after 4-Hr NE digestion” value [1] was 1.5 ± 0.7 µM (≈ 2.85 µg/mL) and the “toxicity (in words)” value [2] was “nontoxic”.

For CC(=O)NC[C@H]1CN(c2ccc(N3CCOCC3)c(F)c2)C(=O)O1 [linezolid], the MIC ([1]; control: peptide alone in 200 mmol/L ammonium bicarbonate pH 8.0, 1 h, read-out: MIC after 1-Hr AB incubation) was greater than 16 µM, the MIC ([1]; control: peptide alone in 200 mmol/L ammonium bicarbonate pH 8.0, 4 h, read-out: MIC after 4-Hr AB incubation) was greater than 16 µM and the MIC ([1]; human neutrophil elastase, molar ratio 1:50 with peptide, 200 mM ammonium bicarbonate pH 8.0, 1 h, read-out: MIC after 1-Hr NE digestion) was greater than 16 µM. For the same compound, the MIC ([1]; human neutrophil elastase, molar ratio 1:50 with peptide, 200 mM ammonium bicarbonate pH 8.0, 4 h, read-out: MIC after 4-Hr NE digestion) was greater than 16 µM.

With NC[C@H]1O[C@H](O[C@H]2[C@H](O)[C@@H](O[C@H]3O[C@H](CO)[C@@H](O)[C@H](N)[C@H]3O)[C@H](N)C[C@@H]2N)[C@H](N)C[C@@H]1O [tobramycin] the MIC ([3]; Pseudomonas) was 32 µM (≈ 15 µg/mL), the MIC ([4]; Acinetobacter baumannii, average of four strains, MHB2, 18 h, 37 °C, A570 growth curves) was 32 µM (≈ 15 µg/mL) and the MIC ([5]; Escherichia coli, average of four strains, MHB2, 18 h, 37 °C, A570 growth curves) was 28 µM (≈ 13.1 µg/mL). For the same compound, the MIC ([6]; Klebsiella pneumoniae, average of four strains, MHB2, 18 h, 37 °C, A570 growth curves) was 2.1 µM (≈ 0.982 µg/mL), the MIC ([7]; Staphylococcus aureus, average of strains SA703, SA722, SA729, MHB2, 18 h, 37 °C, A570 growth curves) was 13.1 µM (≈ 6.12 µg/mL) and the MIC ([8]; Enterobacter) was 24.5 µM (≈ 11.5 µg/mL). For the same compound, the MIC [9] was 23.7 ± 3.4 µM (≈ 11.1 µg/mL), the MIC [10, 12] was 25 µM (≈ 11.7 µg/mL) and the MIC [11] was 19 ± 1 µM (≈ 8.88 µg/mL).

CC(C)[C@@H]1NC(=O)[C@H](Cc2c[nH]c3ccccc23)NC(=O)[C@H](Cc2c[nH]c3ccccc23)NC(=O)[C@H](Cc2c[nH]c3ccccc23)NC(=O)[C@H](Cc2c[nH]c3ccccc23)NC(=O)[C@H](CCCNC(=N)N)NC(=O)[C@H](CCCNC(=N)N)NC(=O)[C@H](CCCNC(=N)N)NC(=O)[C@H](CCCNC(=N)N)NC(=O)[C@H](CCCNC(=N)N)NC(=O)[C@H](CCCNC(=N)N)NC(=O)[C@H](CCCNC(=N)N)NC(=O)[C@H](CCCNC(=N)N)NC(=O)[C@H](C(C)C)NC(=O)[C@H](C(C)C)NC(=O)[C@H](C(C)C)NC1=O [CE-05] (cyclo(RRRRRRRRWWWWVVVV)) showed an MIC [3] of 6.1 µM (≈ 14.6 µg/mL), an MIC ([4]; AB78, AB83, AB273, AB275, 18 h) of 1.1 µM (≈ 2.63 µg/mL) and an MIC [5, 13] of 2.5 µM (≈ 5.98 µg/mL). For the same compound, the MIC [6, 14] was 6.7 µM (≈ 16 µg/mL), the MIC ([7]; SA703, SA722, SA729, 18 h) was 1.0 µM (≈ 2.39 µg/mL) and the MIC [8] was 3.2 µM (≈ 7.65 µg/mL). For the same compound, the “MIC G(−) average” value [9] was 3.9 ± 1.1 µM (≈ 9.32 µg/mL), the “MIC after 1-Hr AB incubation” value [1] was 6.0 ± 2.8 µM (≈ 14.3 µg/mL) and the “MIC after 1-Hr NE digestion” value [1] was 3.0 ± 1.4 µM (≈ 7.17 µg/mL). For the same compound, the “MIC after 4-Hr AB incubation” value [1] was 4.0 ± 0 µM (≈ 9.56 µg/mL) and the “MIC after 4-Hr NE digestion” value [1] was 3.0 ± 1.4 µM (≈ 7.17 µg/mL).

colistin gave an MIC [3] of 8.4 µM, an MIC [4, 12] of 0.5 µM and an MIC [5, 12] of 4.3 µM. It also gave an MIC [6, 12] of 0.7 µM, an MIC ([7]; average of strains SA703, SA722, SA729, MHB2, 18 h, 37 °C, A570 growth curves) of 64.0 µM and an MIC [8] of 12.1 µM. For the same compound, the “MIC G(−) average” value [9] was 5.2 ± 4.3 µM, the MIC [10, 12] was 32.0 µM and the “MIC G(+) average” value [11] was 48.0 ± 23.0 µM.

Work on CC(C)[C@@H]1NC(=O)[C@H](Cc2c[nH]c3ccccc23)NC(=O)[C@H](Cc2c[nH]c3ccccc23)NC(=O)[C@H](Cc2c[nH]c3ccccc23)NC(=O)[C@H](Cc2c[nH]c3ccccc23)NC(=O)[C@H](CCCNC(=N)N)NC(=O)[C@H](CCCNC(=N)N)NC(=O)[C@H](CCCNC(=N)N)NC(=O)[C@H](CCCNC(=N)N)NC(=O)[C@H](CCCNC(=N)N)NC(=O)[C@H](CCCNC(=N)N)NC(=O)[C@H](C(C)C)NC1=O [CE-03] (cyclo(RRRRRRWWWWVV)) yielded an MIC [3] of 7.1 µM (≈ 13.3 µg/mL), an MIC ([4]; AB78, AB83, AB273, AB275, 18 h) of 2.2 µM (≈ 4.14 µg/mL) and an MIC [5, 13] of 1.5 µM (≈ 2.82 µg/mL). It also gave an MIC [6, 14] of 8.2 µM (≈ 15.4 µg/mL), an MIC ([7]; SA703, SA722, SA729, 18 h) of 2.3 µM (≈ 4.32 µg/mL) and an MIC [8] of 3.7 µM (≈ 6.96 µg/mL). For the same compound, the “MIC G(−) average” value [9] was 4.6 ± 1.3 µM (≈ 8.65 µg/mL), the MIC ([10]; 18 h) was 0.9 µM (≈ 1.69 µg/mL) and the “MIC G(+) average” value [11] was 1.6 ± 0.7 µM (≈ 3.01 µg/mL). For the same compound, the “MIC after 1-Hr AB incubation” value [1] was 1.0 ± 0.0 µM (≈ 1.88 µg/mL), the “MIC after 1-Hr NE digestion” value [1] was 1.5 ± 0.7 µM (≈ 2.82 µg/mL) and the “MIC after 4-Hr AB incubation” value [1] was 1.0 ± 0 µM (≈ 1.88 µg/mL). For the same compound, the “MIC after 4-Hr NE digestion” value [1] was 1.0 ± 0 µM (≈ 1.88 µg/mL).
